Reference: patent US8012956B2, “Tropane compounds” (Exelixis, Inc., priority 2007, dated 2011)

Target: HSP90 (Homo sapiens, UniProt P07900)
Assay: HSP90 inhibition (HSP90 IC50)
Type: biochemical

Row | SMILES | IC50
1 | COc1ccc(CNC(=O)c2ccc(N3[C@@H]4CC[C@H]3C[C@@H](NC(=O)c3cccc(OC)c3C)C4)nc2)cc1OC [N {[3,4-bis(methyloxy)phenyl]methyl}-6-[3-endo-({[2-methyl-3-(methyloxy)phenyl]carbonyl}amino)-8-azabicyclo[3.2.1]oct-8-yl]pyridine-3-carboxamide] | < 500 nM
2 | COc1cccc(C(=O)N[C@H]2C[C@H]3CC[C@@H](C2)N3c2ccc(C(=O)Nc3ccc4c(c3)OCO4)cn2)c1C [N-1,3-benzodioxol-5-yl-6-[3-endo-({[2-methyl-3-(methyloxy)phenyl]carbonyl}amino)-8-azabicyclo[3.2.1]oct-8-yl]pyridine-3-carboxamide] | 1000 to 2000 nM
3 | COc1cccc(C(=O)N[C@H]2C[C@H]3CC[C@@H](C2)N3c2ccc(C(=O)NCc3ccc4c(c3)OCO4)cn2)c1C [N-(1,3-benzodioxol-5-ylmethyl)-6-[3-endo-({[2-methyl-3-(methyloxy)phenyl]carbonyl}amino)-8-azabicyclo[3.2.1]oct-8-yl]pyridine-3-carboxamide] | < 500 nM
4 | COc1cccc(C(=O)N[C@H]2C[C@H]3CC[C@@H](C2)N3c2ccc(C(=O)NC(C)C)cn2)c1C [N-(1-methylethyl)-6-[3-endo-({[2-methyl-3-(methyloxy)phenyl]carbonyl}amino)-8-azabicyclo[3.2.1]oct-8-yl]pyridine-3-carboxamide] | 1000 to 2000 nM
5 | COc1cccc(C(=O)NC2CC3CCC(C2)N3c2ccc(C(=O)NCC(O)CO)cn2)c1C (stereo not drawn) [N-(2,3-dihydroxypropyl)-6-[3-endo-({[2-methyl-3-(methyloxy)phenyl]carbonyl}amino)-8-azabicyclo[3.2.1]oct-8-yl]pyridine-3-carboxamide] | 1000 to 2000 nM
6 | COc1cccc(C(=O)N[C@H]2C[C@H]3CC[C@@H](C2)N3c2ccc(C(=O)NCCO)cn2)c1C [N-(2-hydroxyethyl)-6-[3-endo-({[2-methyl-3-(methyloxy)phenyl]carbonyl}amino)-8-azabicyclo[3.2.1]oct-8-yl]pyridine-3-carboxamide] | 2000 to 10000 nM
7 | COc1cccc(C(=O)N[C@H]2C[C@H]3CC[C@@H](C2)N3c2ccc(C(=O)NCCC(C)(C)C)cn2)c1C [N-(3,3-dimethylbutyl)-6-[3-endo-({[2-methyl-3-(methyloxy)phenyl]carbonyl}amino)-8-azabicyclo[3.2.1]oct-8-yl]pyridine-3-carboxamide] | 2000 to 10000 nM
8 | COc1cccc(C(=O)N[C@H]2C[C@H]3CC[C@@H](C2)N3c2ccc(C(=O)Nc3cc(C)cc(C)c3)cn2)c1C [N-(3,5-dimethylphenyl)-6-[3-endo-({[2-methyl-3-(methyloxy)phenyl]carbonyl}amino)-8-azabicyclo[3.2.1]oct-8-yl]pyridine-3-carboxamide] | 2000 to 10000 nM
9 | COc1cccc(C(=O)N[C@H]2C[C@H]3CC[C@@H](C2)N3c2ccc(C(=O)Nc3cccc(Cl)c3)cn2)c1C [N-(3-chlorophenyl)-6-[3-endo-({[2-methyl-3-(methyloxy)phenyl]carbonyl)amino)-8-azabicyclo[3.2.1]oct-8-yl]pyridine-3-carboxamide] | 2000 to 10000 nM
10 | COc1cccc(C(=O)N[C@H]2C[C@H]3CC[C@@H](C2)N3c2ccc(C(=O)NCCC(C)C)cn2)c1C [N-(3-methylbutyl)-6-[3-endo-({[2-methyl-3-(methyloxy)phenyl]carbonyl}amino)-8-azabicyclo[3.2.1]oct-8-yl]pyridine-3-carboxamide] | 1000 to 2000 nM
11 | COc1cccc(C(=O)N[C@H]2C[C@H]3CC[C@@H](C2)N3c2ccc(C(=O)Nc3ccc(F)cc3)cn2)c1C [N-(4-fluorophenyl)-6-[3-endo-({[2-methyl-3-(methyloxy)phenyl]carbonyl}amino)-8-azabicyclo[3.2.1]oct-8-yl]pyridine-3-carboxamide] | 1000 to 2000 nM
12 | COc1cccc(C(=O)N[C@H]2C[C@H]3CC[C@@H](C2)N3c2ccc(C(=O)Nc3ccc(OCCN(C)C)cc3)cn2)c1C [N-(4-{[2-(dimethylamino)ethyl]oxy}phenyl)-6-[3-endo-({[2-methyl-3-(methyloxy)phenyl]carbonyl}amino)-8-azabicyclo[3.2.1]oct-8-yl]pyridine-3-carboxamide] | 500 to 999 nM
